Like-named read-outs stand apart in the source and are kept apart here.

The subject of the experiment is mice. As to the kind of experiment: Acetic Acid Induced Mouse Writhing Test. The note with it: for ED50: sc. The format is in vivo, mouse (male CD-1). How it is done:
Analgesic effects of the test compounds were determined in mice by use of the acetic acid induced writhing test described by B. A. Whittle, Brit. J. Pharmacol., 22:246 (1964). In this test, at least 3 groups of 5 male CD-1 mice each were given subcutaneous doses of the test drug dissolved in distilled water. In all cases, 0.4 mL of a 0.5% v/v acetic acid in distilled water solution was administered intraperitoneally 15 min. post drug. The number of writhes in a 20 min. interval beginning 5 min. after the acetic acid injection were determined and compared with the number of writhes in a control group which had received only acetic acid.
Percent inhibition of writhing was calculated as: [formula]
The ED50 dose, i.e., the dose required to reduce the number of writhes by 50%, was determined graphically from a plot of % inhibition as a probit verus log dose. […] See Lichtfield, J. T. and Wilcoxon, F., J. Pharmacol. Exp. Ther., 96, 99-113 (1949).
The results of this testing, both in terms of μ mole/kg and mg/kg of the compound tested, are set out in table I.

[1] abbreviates: 0.25 h, Analgesic Activity In Mouse Writhing Assay - Subcutaneous Inj., acetic acid i.p. 15 min post drug, * = d-tartrate salt, read-out: ED50 (mg/kg).
[2] abbreviates: 0.25 h, Analgesic Activity In Mouse Writhing Assay - Subcutaneous Inj., acetic acid i.p. 15 min post drug, * = d-tartrate salt, read-out: ED50 (μmole/kg).

For `COc1ccc2c3c1O[C@H]1[C@H]4OC[C@@]4(CCc4ccccc4)C[C@H]4[C@@H](C2)N(CC2CC2)CC[C@@]341` [Compound 23Pc], the ED50 under setting [1] stood at 0.26 mg/kg and the ED50 under setting [2] came to 0.57 µmol/kg.
For the compound `Oc1ccc2c3c1O[C@H]1[C@H]4OC[C@@]4(CCCc4ccccc4)C[C@H]4[C@@H](C2)N(CC2CC2)CC[C@@]341` [Compound 24Pd], the ED50 by setting is: under setting [1], 0.0015 mg/kg; under setting [2], 0.003 µmol/kg.
With `COc1ccc2c3c1O[C@H]1[C@H]4OC[C@@]4(CCCCc4ccccc4)C[C@H]4[C@@H](C2)N(CC2CCC2)CC[C@@]341` [Compound 23Be], the ED50 turned out to be 1.8 mg/kg under setting [1] and 2.8 µmol/kg under setting [2].
For the compound `CN1CC[C@]23c4c5ccc(O)c4O[C@H]2[C@H]2OC[C@@]2(CCCc2ccccc2)C[C@H]3[C@H]1C5` [Compound 20d], the ED50 turned out to be 0.011 mg/kg under setting [1] and 0.019 µmol/kg under setting [2].
With `Oc1ccc2c3c1O[C@H]1[C@H]4OC[C@@]4(CCCc4ccccc4)C[C@H]4[C@@H](C2)N(CC2CCC2)CC[C@@]341` [Compound 24Bd], the ED50 reads like this: under setting [1], 0.0375 mg/kg; under setting [2], 0.06 µmol/kg.
With `COc1ccc2c3c1O[C@H]1[C@H]4OC[C@@]4(CCCCc4ccccc4)C[C@H]4[C@@H](C2)N(CC2CC2)CC[C@@]341` [Compound 23Pe], the ED50 reads like this: under setting [1], 0.39 mg/kg; under setting [2], 0.61 µmol/kg.
The corresponding values for `Oc1ccc2c3c1O[C@H]1[C@H]4OC[C@@]4(CCCCc4ccccc4)C[C@H]4[C@@H](C2)N(CC2CC2)CC[C@@]341` [Compound 24Pe] are 0.01 mg/kg and 0.015 µmol/kg.
For the compound `COc1ccc2c3c1O[C@H]1[C@@H]4OC[C@]4(CCCCc4ccccc4)C[C@H]4[C@@H](C2)N(C)CC[C@@]341` [Compound 8, 4,5α-Epoxy-3-methoxy-17-methyl-7α-(4-phenylbutyl)-6β,7β-(oxymethylene)-morphinan], the “activity in the acetic acid induced writhing assay” value (at 10 mg/kg) is “inactive”.
As to `Oc1ccc2c3c1O[C@H]1[C@H]4OC[C@@]4(CCCCc4ccccc4)C[C@H]4[C@@H](C2)N(CC2CCC2)CC[C@@]341` [Compound 24Be], the ED50 under setting [1] amounted to 0.22 mg/kg and the ED50 under setting [2] amounted to 0.05 µmol/kg.
The corresponding values for `COc1ccc2c3c1O[C@H]1[C@H]4OC[C@@]4(CCc4ccccc4)C[C@H]4[C@@H](C2)N(C)CC[C@@]341` [Compound 17c] are 0.5 mg/kg and 0.9 µmol/kg.
In the case of `CN1CC[C@]23c4c5ccc(O)c4O[C@H]2[C@H]2OC[C@@]2(CCCCCc2ccccc2)C[C@H]3[C@H]1C5` [Compound 20f], the ED50 under setting [1] worked out at 0.017 mg/kg and the ED50 under setting [2] is 0.028 µmol/kg.
The corresponding values for `COc1ccc2c3c1O[C@H]1[C@H]4OC[C@@]4(CCCCCc4ccccc4)C[C@H]4[C@@H](C2)N(C)CC[C@@]341` [Compound 17f] are 0.82 mg/kg and 1.3 µmol/kg.
With `COc1ccc2c3c1O[C@H]1[C@H]4OC[C@@]4(CCCc4ccccc4)C[C@H]4[C@@H](C2)N(C)CC[C@@]341` [Compound 17d], the ED50 is, setting by setting: under setting [1], 0.027 mg/kg; under setting [2], 0.046 µmol/kg.
As for `Oc1ccc2c3c1O[C@H]1[C@H]4OC[C@@]4(CCc4ccccc4)C[C@H]4[C@@H](C2)N(CC2CC2)CC[C@@]341` [Compound 24Pc], the ED50 under setting [1] came out at 0.018 mg/kg and the ED50 under setting [2] was 0.04 µmol/kg.
Regarding `COc1ccc2c3c1O[C@H]1[C@H]4OC[C@@]4(CCc4ccccc4)C[C@H]4[C@@H](C2)N(CC2CCC2)CC[C@@]341` [Compound 23Bc], the ED50 runs as follows: under setting [1], > 10 mg/kg; under setting [2], > 16 µmol/kg.
Regarding `COc1ccc2c3c1O[C@H]1[C@H]4OC[C@@]4(CCCCc4ccccc4)C[C@H]4[C@@H](C2)N(C)CC[C@@]341` [Compound 17e], the ED50 worked out at 0.003 mg/kg (Mus musculus, acetic acid induced writhing assay, contrasted with compound 8, read-out: ED50 in the same assay); 0.0028 mg/kg under setting [1]; 0.005 µmol/kg under setting [2].
Consider `CN1CC[C@]23c4c5ccc(O)c4O[C@H]2[C@H]2OC[C@@]2(CCc2ccccc2)C[C@H]3[C@H]1C5` [Compound 20c], for which the ED50 was determined as 0.024 mg/kg under setting [1] and 0.048 µmol/kg under setting [2].
For the compound `COc1ccc2c3c1O[C@H]1[C@H]4OC[C@@]4(CCCc4ccccc4)C[C@H]4[C@@H](C2)N(CC2CC2)CC[C@@]341` [Compound 23Pd], the ED50 was determined as 0.67 mg/kg under setting [1] and 1.07 µmol/kg under setting [2].
For the compound `CN1CC[C@]23c4c5ccc(O)c4O[C@H]2[C@H]2OC[C@@]2(CCCCc2ccccc2)C[C@H]3[C@H]1C5` [Compound 20e], the ED50 by setting is: under setting [1], 0.014 mg/kg; under setting [2], 0.024 µmol/kg.
The corresponding values for `COc1ccc2c3c1O[C@H]1[C@H]4OC[C@@]4(CCCc4ccccc4)C[C@H]4[C@@H](C2)N(CC2CCC2)CC[C@@]341` [Compound 23Bd] are 2.8 mg/kg and 4.4 µmol/kg.
In the case of `Oc1ccc2c3c1O[C@H]1[C@H]4OC[C@@]4(CCc4ccccc4)C[C@H]4[C@@H](C2)N(CC2CCC2)CC[C@@]341` [Compound 24Bc], the ED50 is, setting by setting: under setting [1], 0.177 mg/kg; under setting [2], 0.39 µmol/kg.

(Values after patent US4443605A, “7β-Arylalkyl-6α, 7 α-oxymethylene-3-methoxy or 3-hydroxy-4, 5α-epoxy-17 methyl or 17-cycloalkyl-methyl morphinans” (Miles Laboratories, Inc., priority 1982, dated 1984).)
